Values after ≈ are worked out from the molar mass of the structure shown. Like-named read-outs stand apart in the source and are kept apart here.
Assays:
liver ALDH2 [1] = molecular target: T1, liver ALDH2 (Rattus norvegicus, UniProt P11884); experiment: 10-day rat Pharmacology study, liver ALDH2 activity following ethanol challenge; assay type: in vivo
T1 construct: from tissue; host or cells: liver (left lateral lobe) lysate of Sprague Dawley (CD-IGS) rats
T1 sequence (P11884 20-519): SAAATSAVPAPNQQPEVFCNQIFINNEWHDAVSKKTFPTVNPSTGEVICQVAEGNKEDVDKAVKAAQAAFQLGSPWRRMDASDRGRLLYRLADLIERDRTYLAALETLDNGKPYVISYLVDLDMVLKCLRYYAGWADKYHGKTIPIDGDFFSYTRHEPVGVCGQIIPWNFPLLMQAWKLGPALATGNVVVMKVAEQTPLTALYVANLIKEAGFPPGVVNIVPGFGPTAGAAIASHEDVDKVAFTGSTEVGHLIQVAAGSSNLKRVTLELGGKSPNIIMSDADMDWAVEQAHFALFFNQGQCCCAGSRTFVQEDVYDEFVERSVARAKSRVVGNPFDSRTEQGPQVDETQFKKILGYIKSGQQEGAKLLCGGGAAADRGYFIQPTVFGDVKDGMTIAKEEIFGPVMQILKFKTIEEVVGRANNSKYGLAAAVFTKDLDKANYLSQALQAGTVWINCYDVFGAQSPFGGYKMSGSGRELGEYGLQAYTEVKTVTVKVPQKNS
Procedure: (§1) Animals were respectively administered vehicle and Example 1-2 at dosages of 2, 6.5 or 12 mg/kg via tail vein injection, once daily for 1 day (Groups 1-4), once daily for 3 days (Groups 5-8), or once daily for 5 days (Groups 9-12). For Group 13, animals were administered 20 mg/kg (on Day 1) or 12 mg/kg (on Days 2-5) dose via tail vein injection, once daily for 5 days. In some studies, the animals were administered a compound described herein for 10 days. In some studies, the animals were administered a compound described herein for 12 days. In some studies, the study was carried out with administered the compounds described herein including Example 1-2 racemate, Example 1-2A, Example 1-21B, Example 1-11 racemate, Example 1-11A, and/or Example 1-11B at a dosage of about 0.5, 1, 2, 4, and 8 mg.
Ethanol (200PRF or 100% pure, non-denatured and no additives) was obtained from Fisher Scientific. The ethanol dosing solution was prepared fresh for each use. One (1) mL of ethanol was added to four (4) mL of saline (0.9% NaCl) in a glass vial and mixed by vortexing to create a uniform solution prior to administration. Animals were administered 20% ethanol at 1 g/kg (IP) 8 hours following the last dose of test article. Thirty (30) minutes following ethanol challenge, animals were euthanized with CO2. […]

liver ALDH2 [2] = molecular target: T1, liver ALDH2; experiment: In vivo ALDH2 enzymatic activity assay with disulfiram comparison, ethanol challenge (Example 3); parameters: species or system rats (Sprague Dawley); conditions: 2 mg/kg, 6.5 mg/kg and 12 mg/kg IV QD; printed 'after 5 days'
liver ALDH2 [3] = molecular target: T1, liver ALDH2; experiment: as above; parameters: species or system rats (Sprague Dawley); conditions: for statistical significance of ALDH2 inhibitions: 2 mg/kg, 6.5 mg/kg and 12 mg/kg IV QD; for dose-activity response of ALDH2 inhibition: 2, 6.5, 12 mg/kg IV QD 3 days; for onset of inhibition of ALDH2 activity: after only 3-day administration; for ALDH2 inhibition versus Disulfiram at 3.57 mg/kg/day PO: after three days at 2 mg/kg/day IV
Procedure: (§2) Eighty-eight (88) male Sprague Dawley (CD-IGS) were obtained from Charles River Laboratories. All animals were housed under controlled conditions of temperature (72±8° F.), relative humidity (30-70%) and a 12-hour light-dark cycle (light from 6:00 AM to 6:00 PM). All animals were allowed free access to standard rodent chow (PicoLab Rodent Diet 20) and water (reverse osmosis, 0.2 μM filtered). Animals had at least a 3-day acclimation period prior to study.
30 mL disulfiram formulation were prepared. 64.2 mg of disulfiram was completely dissolved in 6 mL of DMSO to render a mixture. 0.3 mL of Tween 80 was then slowly added to the mixture. To the resulting mixture, 23.7 mL of PBS (1×, pH 5.0) was slowly added while stirring to render a dosing formulation. The dosing formulation was a fine suspension at concentration of 2.14 mg/mL. The final concentrations for DMSO and […] were 20% v/v and 1% v/v, respectively.
The dosing formulations of Example 1-4A, Example 1-4B3, and Example 1-2 and difulfiram were prepared with PBS (pH 7.0) by thoroughly mixing via vortexing and sonication.
Ethanol challenge study design and dosing groups of Example 1-4A, Example 1-48, and Example 1-2 and difulfiram are as shown in Table 3.
Animals in Group 1 was administered vehicle (PBS) via tail vein injection, once daily for 3 days. Animals in Group 2 was administered vehicle (PBS) disulfiram at 3.57 mg/kg via oral gavage (PO) once daily for 3 days. Animals in Groups 3-11 were respectively administered Example 1-4A at 2, 6.5, and 12 mg/kg, Example 1-4B at 2, 6.5, and 12 mg/kg, or Example 1-2 at 2, 6.5, and 12 mg/kg via tail vein injection, once daily for 3 days.
Dosing volume (1 or 1.67 mL/kg) was calculated based on the individual body weight obtained prior to the first dose of test article.
Ethanol (200PRF or 100% pure, non-denatured and no additives) was obtained from Fisher Scientific. Ethanol dosing solution (20% v/v in saline) was prepared by mixing one (1) part of ethanol and four (4) part of saline (0.9% NaCl) thoroughly to create a uniform solution prior to administration. Animals was administered 20% ethanol at 1 g/kg (IP) 8 hours following the third dose of test article. Thirty (30) minutes following ethanol challenge, animals were euthanized with CO2. About 2 mL of whole blood was rapidly collected via vena cava for generation of plasma samples. Blood samples were placed into K2 EDTA tubes and kept on wet ice prior to processing. Liver lysate generation, protein concentration determination, and ALDH2 activity assay were performed by Confluence Discovery Technologies (CDT). Protein concentrations were determined using the Pierce BCA Protein Assay Kit. ALDH2 Activity Assay using the Abcam assay kit #ab115348.

[4] = Solubility in CHCl3, DCM and DMSO by SFC/UV; assay type: physicochemical; conditions: organic solvent or mixture, thermodynamic from solid, room temperature
Procedure: The solubility in chloroform (CHCl3), dichloromethane (DCM) and dimethyl sulfoxide (DMSO) was determined at room temperature up to 50 mg/mL by measuring the concentrations of the solutions using SFC/UV. […] 200 mg Example 1-11B was weighed individually into three separate vials. 4 mL DMSO, 6 mL CHCl3 and 6 mL DCM were pipetted into the three vials containing Example 1-11B. The solutions were mixed and sonicated for 10 minutes. The DMSO solution was clear, and an aliquot was taken and diluted 100 times using MeOH before being subjected to SFC analysis. The saturated CHCl3 and DCM solutions were centrifuged, and the clear solution was diluted 100 times using MeOH before being subjected to SFC analysis:
Solubility measurement of up to 50 mg/mL in DMSO, CHCl3 and DCM was requested. […] At 50 mg/mL, Example 1-11B was not completely dissolved in CHCl3 or DCM solutions. After mixing and sonication, a clear aliquot of each solution was taken, and the concentrations of Example 1-11B in CHCl3 and DCM were measured by SFC/UV using the DMSO solution as a reference.

liver ALDH2 [5] = molecular target: T1, liver ALDH2; experiment: In vivo ALDH2 enzymatic activity assay, ethanol challenge (Example 2); parameters: species or system rats (Sprague Dawley)
Procedure: as §2, with “Sixty (60)” for “Eighty-eight (88)”, “male and sixty (60) female” for “male”
Example 1-2 was synthesized by PharmAgra Labs, Lot #489PAL97; and stored at 4° C. and protected from light upon receipt. Example 1-2 dosing solutions were prepared by dissolving in PBS (pH 7.0) and thoroughly mixing via vortexing and sonication.
Example 1-15 was synthesized by PharmAgra Labs, Lot #505PAL17; and stored at 4° C. and protected from light upon receipt. Example 1-15 dosing solution was prepared by dissolving in PBS (pH 7.0) and thoroughly mixing via vortexing and sonication. The dosing formulation at concentration of 20 mg/mL was a clear solution.
Body weights of the animals in Groups 1-4 were obtained on Day 1. Body weights of the animals in Groups 5-8 were obtained on Days 1-3 respectively. Body weights of the animals in Groups 9-13 were obtained on Days 1, 4 and 5 respectively.
as §1
Dosing volume (1 or 0.6 mL/kg) was calculated based on the body weight of the individual animal obtained on Day 1 (all groups), Days 2-3 (Groups 5-8), and Days 4-5 (Groups 9-13).
Ethanol (200PRF or 100% pure, non-denatured and no additives) was obtained from Fisher Scientific. The ethanol dosing solution was prepared fresh for each use. One (1) mL of ethanol was added to four (4) mL of saline (0.9% NaCl) in a glass vial and mixed by vortexing to create a uniform solution prior to administration. Animals were administered 20% ethanol at 1 g/kg (IP) 8 hours following the last dose of test article. Thirty (30) minutes following ethanol challenge, animals were euthanized with CO2. About 7 mL of whole blood was rapidly collected via vena cava for generation of serum samples for assays (Acetaldehyde assay by GPL and ALDH2 activity and protein assay by Eurofins). Blood samples were placed into serum separator tubes and maintained at room temperature for at least 30 minutes to allow clot formation prior to processing.
The left lateral lobe of liver was harvested and rinsed in cold saline to render a sample that was snap frozen in liquid nitrogen. Samples were stored at −80° C. until shipment. […]
The obtained serum samples as described herein were measured in singlicate for Acetaldehyde concentration using the Acetaldehyde Colorimetric Assay Kit (BioAssay Systems, #EACT-100), in accordance with manufacturer's instructions. […]

## C[S+]([O-])C(=O)N1CCC(O)CC1 (racemic) [Example 1-11, (4-hydroxypiperidin-1-yl)(methylsulfinyl)methanone]
Liver ALDH2 [1]; 10 day administration at 2, 4 and 8 mg/kg, material with 66 wt % of Example 1-11B
  ALDH2 inhibition versus pure enantiomer Example 1-11A (FIG. 12): greater ALDH2 inhibition than the pure enantiomer Example 1-11A

## CCN(CC)C(=O)[S@+](C)[O-] (single isomer, unassigned; peak-1) [Example 1-2A, (S )-N, N-diethyl-1 - (methylsulfinyl)methanamide (Peak-1)]
Liver ALDH2 [1]; 10-day administration at 0.5, 1 and 2 mg/kg
  ALDH2 inhibition, enantiomer versus other enantiomer (FIG. 12): greater ALDH2 inhibition compared the other enantiomer Example 1-2B

## CCN(CC)C(=O)[S+]([O-])CC1CC1 (single isomer, unassigned; peak-2) [Example 1-4B, 1-((cyclopropylmethyl)sulfinyl)-N,N-diethylmethanamide (Peak-2)]
Liver ALDH2 [2]
  ALDH2 inhibition (FIG. 7): showed ALDH2 inhibitions
Liver ALDH2 [3]
  statistical significance of ALDH2 inhibitions: statistically significant
  dose-activity response of ALDH2 inhibition: A dose-activity response was observed
  onset of inhibition of ALDH2 activity: fast activity onset
  ALDH2 inhibition versus Disulfiram at 3.57 mg/kg/day PO: greater inhibition

## C[S@+]([O-])C(=O)N1CCC(O)CC1 [Example 1-11B, (S)-(4-hydroxypiperidin-1-yl)(methylsulfinyl)methanone]
[4]; chloroform (CHCl3), SFC/UV, read-out: solubility in CHCl3
  solubility at 10 min: 12.4 mg/mL (≈ 64.8 mM)
[4]; dichloromethane (DCM), SFC/UV, read-out: solubility in DCM
  solubility at 10 min: 12.3 mg/mL (≈ 64.3 mM)
[4]; dimethyl sulfoxide (DMSO), tested up to 50 mg/mL, read-out: solubility in DMSO
  solubility at 10 min: > 50 mg/mL

## CCN(CC)C(=O)[S+](C)[O-] (racemic) [Example 1-2, N,N-diethyl-1-(methylsulfinyl)methanamide]
Liver ALDH2 [2]
  ALDH2 inhibition (FIG. 7): showed ALDH2 inhibitions
Liver ALDH2 [5]; 6.5 mg/kg and 12 mg/kg IV, 1 day
  ALDH2 inhibition after one (1) day administration: statistically significant ALDH2 inhibitions were observed
Liver ALDH2 [5]; 2, 6.5 or 12 mg/kg tail vein injection QD for 1, 3 or 5 days, ethanol 1 g/kg IP 8 h after last dose
  dose response and treatment-duration response in inhibiting ALDH2 activities: A dose response and a treatment-duration response were observed
Liver ALDH2 [5]; all doses (2, 6.5, 12 mg/kg) IV QD for 3 and 5 days
  ALDH2 inhibition, treatment for 3 and 5 days: statistically significant ALDH2 inhibitions at all doses
Liver ALDH2 [5]; dosages of 2 mg/kg, 6.5 mg/kg and 12 mg/kg IV QD
  inhibition of liver ALDH2 activity (FIGS. 2 and 3): statistically significant effectiveness in inhibiting liver ALDH2 activity
Liver ALDH2 [3]
  statistical significance of ALDH2 inhibitions: statistically significant
  dose-activity response of ALDH2 inhibition: A dose-activity response was observed
  onset of inhibition of ALDH2 activity: fast activity onset
  ALDH2 inhibition versus Disulfiram at 3.57 mg/kg/day PO: greater inhibition

## CCN(CC)C(=O)[S+]([O-])CC[S+]([O-])C(=O)N(CC)CC (stereo not drawn) [Example 1-15, 1-1′-(ethane-1,2-diyldisulfinyl)bis(N,N-diethylmethanamide)]
other
  melting point: 71.2 to 74.5 °C
Liver ALDH2 [5]; 20 mg/kg (Day 1), 12 mg/kg (Days 2-5) tail vein injection QD 5 days, ethanol challenge
  ALDH2 inhibition activity in comparison with the negative control group: did not show any inhibition activity

Source: patent US11649208B2, “Compounds and methods for treating alcohol disorder” (SOPHROSYNE PHARMACEUTICALS LIMITED, priority 2021, dated 2023)
